# What was measured:
# [1] = tested on: Escherichia coli 2017; assay: agar dilution method, Table 2; assay type: cell-based; settings: Mueller-Hinton agar, 18 hours, 37° C., strain resistance: --, read-out: Minimum Inhibitory Concentration
# Protocol: (§1) A further evaluation of substantially pure antibiotic employed the agar dilution method. An inoculum of 2 × 10^4 to 1 × 10^5 organisms is applied as a 0.002 ml. droplet to the surface of Mueller-Hinton agar containing serial, twofold dilutions of antibiotic over the range 0.01 to 73 μg./ml. The results (Table 2) are reported as the minimum inhibitory concentration, in μg./ml., that being the lowest antibiotic concentration at which the growth of the test organism is inhibited over a period of 18 hours at 37° C.
# [2] = tested on: Escherichia coli 2482; assay: agar dilution method, Table 2; assay type: cell-based; settings: Mueller-Hinton agar, 18 hours, 37° C., strain resistance: --, read-out: Minimum Inhibitory Concentration
# Protocol: as §1
# [3] = tested on: Escherichia coli 2964; assay: agar dilution method, Table 2; assay type: cell-based; settings: Mueller-Hinton agar, 18 hours, 37° C., strain resistance: P, read-out: Minimum Inhibitory Concentration
# Protocol: as §1
# [4] = tested on: Klebsiella 2921; assay: agar dilution method, Table 2; assay type: cell-based; settings: Mueller-Hinton agar, 18 hours, 37° C., strain resistance: P, read-out: Minimum Inhibitory Concentration
# Protocol: as §1
# [5] = tested on: Klebsiella 2922; assay: agar dilution method, Table 2; assay type: cell-based; settings: Mueller-Hinton agar, 18 hours, 37° C., strain resistance: P, read-out: Minimum Inhibitory Concentration
# Protocol: as §1
# [6] = tested on: Proteus mirabilis 2830; assay: agar dilution method, Table 2; assay type: cell-based; settings: Mueller-Hinton agar, 18 hours, 37° C., strain resistance: P, read-out: Minimum Inhibitory Concentration
# Protocol: as §1
# [7] = tested on: Pseudomonas aeruginosa 2616; assay: agar dilution method, Table 2; assay type: cell-based; settings: Mueller-Hinton agar, 18 hours, 37° C., strain resistance: P, read-out: Minimum Inhibitory Concentration
# Protocol: as §1
# [8] = tested on: Pseudomonas aeruginosa 2824; assay: agar dilution method, Table 2; assay type: cell-based; settings: Mueller-Hinton agar, 18 hours, 37° C., strain resistance: P, read-out: Minimum Inhibitory Concentration
# Protocol: as §1
# [9] = tested on: Pseudomonas aeruginosa 3210; assay: agar dilution method, Table 2; assay type: cell-based; settings: Mueller-Hinton agar, 18 hours, 37° C., strain resistance: P, read-out: Minimum Inhibitory Concentration
# Protocol: as §1
# [10] = tested on: Serratia 2840; assay: agar dilution method, Table 2; assay type: cell-based; settings: Mueller-Hinton agar, 18 hours, 37° C., strain resistance: P, read-out: Minimum Inhibitory Concentration
# Protocol: as §1
# [11] = tested on: Staphylococcus aureus 2314; assay: agar dilution method, Table 2; assay type: cell-based; settings: Mueller-Hinton agar, 18 hours, 37° C., strain resistance: P, read-out: Minimum Inhibitory Concentration
# Protocol: as §1
# [12] = tested on: Staph. aureus 2949; assay: in vivo efficacy in infected mice, Table 3; set-up: species or system Staphylococcus aureus; settings: 168 h, day 7 survival
# Protocol: (§2) In determining the in vivo activity, thienamycin is dissolved in and diluted with 0.15M NaCl, 0.01M sodium phosphate, pH 7.0, to provide five fourfold concentrations of drug for testing. Female white Swiss mice, averaging about 21 g. in weight, were infected intraperitoneally and subcutaneously with the test organism suspended in broth. The numbers of organisms injected were determined by standard plate-count techniques. At the time of infection, and again 6 hours later, certain of the mice were treated intraperitoneally, subcutaneously and orally with the antibiotic. Five mice were used for each concentration of drug tested. An additional two mice, not infected, were treated with the antibiotic to determine whether the amount of agent injected was toxic. Controls of five mice for each of several dilutions of the infecting culture were included in each test in order to calculate the numbers of organisms that were lethal to 50% of the infected, untreated mice (LD50). This calculation was made using survival data of the seventh day after infection, at which time the amount of drug that should protect 50% of the infected mice (ED50) also was calculated.
# (§3) All animals receiving this challenge and not treated with antibiotic died within 48 hours of the infection. The efficacy of thienamycin having a potency of 30,000 units per mg. is recorded in Table 3: […]
# [13] = tested on: E. coli 2017; assay: in vivo efficacy in infected mice, Table 3; settings: Escherichia coli, 2017, ip, 168 h, i.p. x2 (at infection and 6 hours later), No. LD50 9, day 7 survival
# Protocol: as §2, §3
# [14] = tested on: Pseudomonas aeruginosa 3210; assay: in vivo efficacy in infected mice, Table 3; settings: 168 h, No. LD50 7, day 7 survival
# Protocol: as §2, §3
# [15] = solubility; assay type: physicochemical
# [16] = pKa from pH induced shift in ultraviolet absorption spectrum; assay type: physicochemical; settings: acidic function; 30 mM. phosphate buffer; read-out: pKa1
# Protocol: Thienamycin is an internally neutralized amphoteric substance, whose acidic function has a pKa1 = 3.08 when measured in 30 mM. phosphate buffer, taking advantage of the pH induced shift in ultraviolet absorption spectrum.
# [17] = stability in aqueous solution; assay type: physicochemical
# [18] = inactivation by cysteine; assay type: physicochemical; settings: cysteine 4 μmoles per ml., pH 7.0, 20° C.
# [19] = target: β-lactamase (Enterobacter cloacae, UniProt P05364); assay: exposure to β-lactamase preparations; assay type: biochemical; settings: β-lactamase from sonic disintegration of a strain of Enterobacter cloacae
# Sequence of β-lactamase (P05364 21-381): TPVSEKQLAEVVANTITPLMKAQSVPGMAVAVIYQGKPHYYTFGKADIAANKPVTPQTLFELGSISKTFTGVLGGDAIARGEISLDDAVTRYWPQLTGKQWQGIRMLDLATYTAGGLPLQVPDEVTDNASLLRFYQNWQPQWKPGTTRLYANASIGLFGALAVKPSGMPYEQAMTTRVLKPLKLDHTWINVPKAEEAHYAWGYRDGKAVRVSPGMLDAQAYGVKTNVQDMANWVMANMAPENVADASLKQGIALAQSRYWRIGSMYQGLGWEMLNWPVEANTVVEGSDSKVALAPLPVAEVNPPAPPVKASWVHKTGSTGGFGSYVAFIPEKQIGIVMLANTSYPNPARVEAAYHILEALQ
# From the text: Finally, antibiotic activity and absorbance are extinguished on exposure to preparations of β-lactamase obtained by the sonic disintegration of a strain of Enterobacter cloacae.
# [20] = tested on: Staphylococcus aureus ATCC 6538P; assay: disc-diffusion assay of antibacterial activity (5 ml plates); assay type: cell-based; settings: one unit = same inhibition as 1 μg. of cephalothin/ml.
# Protocol: Assays of antibacterial activity are run according to the following disc-diffusion procedure unless otherwise indicated. The assay plates are prepared in the following manner. An overnight growth of the assay organism, Staphylococcus aureus ATCC 6538P, in nutrient broth plus 0.2% yeast extract is diluted with nutrient broth plus 0.2% yeast extract to a suspension having 55% transmittance at a wavelength of 660 mμ. This suspension is added to Difco nutrient agar supplemented with 2.0 g./l. Difco yeast extract, at 47° C. to 48° C., to make a composition containing 33.2 ml. of the suspension per liter of agar. Five ml. of this suspension is poured into petri dishes of 85 mm. diameter, and these plates are chilled and held at 4° C. until used (5 day maximum).
# Samples of the antibiotic to be assayed are diluted to an appropriate concentration in phosphate buffer at pH 7. Filter-paper discs, 0.5-inch in diameter, are dipped into the test solution and placed on the surface of the assay plate; two discs for each sample are normally placed on one plate opposite to one another. The plates are incubated overnight at 37° C. and the zone of inhibition is measured as mm. diameter. The zone of inhibition measured in mm. determines relative potencies or, when compared with a purified reference standard such as cephalothin, the potency of antibiotic in units/ml. The unit of activity reported in Examples 4 through 7 is based on cephalothin standard solutions of 8, 4, 2 and 1 μg./ml. One unit is defined as the amount which calculates to produce the same inhibition as 1 μg. of cephalothin/ml. that zone of inhibition being between 16 and 21 mm. diameter.
# [21] = Hydroxylamine-Extinguishable Absorbance; assay type: physicochemical; settings: pure thienamycin; 10 mM. hydroxylamine, pH 7.0, room temperature, at least 30 min., 297 nm
# Protocol: The proportion of absorbance measured at 297 nm which can be attributed to the antibiotic content in impure samples is determined by the selective extinction of this absorbance (with concommitant inactivation of antibiotic activity) upon reaction with dilute hydroxylamine.
# Samples are prepared in 0.01M potassium phosphate buffer at pH 7.0 to have an initial A297 between 0.05 and 2.0. Freshly prepared, neutral hydroxylamine (NH2 OH.HCl plus NaOH to a final pH of 7) is added to a final concentration of 10 mM., and reaction is allowed to progress at room temperature for at least 30 min. The resulting A297 when substracted from the initial reading (after correction for dilution by added reagent) yields the hydroxylamine-extinguishable absorbance. Solutions of pure thienamycin show a hydroxylamine-extinguishable absorbance of 94.5%.
smiles,measurement,setting,value
"C[C@@H](O)[C@H]1C(=O)N2C(C(=O)O)=C(SCCN)C[C@H]12 [Thienamycin, thienamycin]",MIC,[1],0.15 µg/mL
same,MIC,[2],0.3 µg/mL
same,MIC,[3],0.3 µg/mL
same,MIC,[4],0.3 µg/mL
same,MIC,[5],0.3 µg/mL
same,MIC,[6],4.7 µg/mL
same,MIC,[7],4.7 µg/mL
same,MIC,[8],0.6 µg/mL
same,MIC,[9],2.4 µg/mL
same,MIC,[10],4.7 µg/mL
same,MIC,[11],0.02 µg/mL
same,ED50,"[12]; Staphylococcus aureus, 2949, ip, mice, i.p. x2 (at infection and 6 hours later), No. LD50 7",0.012 mg/kg
same,ED50,"[12]; Staphylococcus aureus, 2949, po, mice fasted 24 hours, p.o. x2 (at infection and 6 hours later), No. LD50 13",0.67 mg/kg
same,ED50,"[12]; Staphylococcus aureus, 2949, sc, mice, s.c. x2 (at infection and 6 hours later), No. LD50 7",0.08 mg/kg
same,ED50,[13],0.375 mg/kg
same,ED50,"[14]; Pseudomonas aeruginosa, 3210, ip, i.p. x3 (at infection, 2 and 4 hours)",0.45 mg/kg
same,ED50,"[14]; Pseudomonas aeruginosa, 3210, sc, s.c. x3 (at infection, 2 and 4 hours)",2.05 mg/kg
same,solubility in methanol,[15]; methanol,limited solubility in methanol
same,solubility in water,[15]; water,very soluble in water
same,pKa,[16],3.08
same,half-life,"[17]; 1 mg./ml. in 10 mM. potassium phosphate, pH 7.0, 0° C.",53300 min
same,half-life,"[17]; 1 mg./ml. in water (pH 7.0), 0° C.",28800 min
same,half-life,"[17]; 12 mg./ml. in 10 mM. phosphate buffer, 10° C.",4320 min
same,coloration on storage,"[17]; 12 mg./ml. in 10 mM. phosphate buffer, 10° C., by the 48th hour, initially pale yellow",deep amber coloration
same,half-life,"[17]; aqueous solution, pH 8.2, 30° C.",10 min
same,stability in aqueous solution,"[17]; below 1 mg./ml., phosphate buffers, pH between 6 and 7",optimum stability
same,half-life,"[17]; pH 2.0, 30 mM. phosphate buffer, room temperature",6.7 min
same,half-life,"[17]; pH 3.0, 30 mM. phosphate buffer, room temperature",30 min
same,half-life,"[17]; pH 4.0, 30 mM. phosphate buffer, room temperature",346 min
same,half-life,"[17]; pH 8.8 (borate buffer), 30° C.",5.7 min
same,half-life,"[17]; pH 12 (0.01M sodium hydroxide), 30° C.",2.1 min
same,half-life,[18],2.5 min
same,antibiotic activity and absorbance on exposure to β-lactamase,[19],extinguished
same,potency (estimated / calculated),[20]; estimated or calculated potency,"30,140 units/mg."
same,potency,[20],"30,000 units/mg."
same,hydroxylamine-extinguishable absorbance,[21],94.5%

# — patent publication US4081548A, “Antibiotics” (Merck & Co., Inc., priority 1976, dated 1978)
